Series [1] concerns overactive bladder. To be noted: OAB patients; cited from earlier work.
Series [2] concerns the target T1, NK2 receptor of rabbit pulmonary artery (Oryctolagus cuniculus, UniProt P79218).
T1 construct: The left and right branches of the pulmonary artery were obtained from each animal; from tissue; host or cells: rabbit pulmonary artery rings, endothelium removed
T1 sequence (P79218 1-384): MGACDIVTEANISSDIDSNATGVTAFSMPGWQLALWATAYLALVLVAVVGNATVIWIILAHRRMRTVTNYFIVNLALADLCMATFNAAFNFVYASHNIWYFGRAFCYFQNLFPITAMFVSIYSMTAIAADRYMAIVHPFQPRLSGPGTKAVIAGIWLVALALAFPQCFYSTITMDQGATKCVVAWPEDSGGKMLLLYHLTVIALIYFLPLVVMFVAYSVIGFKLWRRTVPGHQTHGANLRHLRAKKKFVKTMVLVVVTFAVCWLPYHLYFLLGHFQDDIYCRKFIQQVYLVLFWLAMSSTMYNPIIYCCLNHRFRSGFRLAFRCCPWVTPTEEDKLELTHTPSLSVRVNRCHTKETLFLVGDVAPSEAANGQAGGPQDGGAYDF
Nature of the series: Inhibition of NK2 receptor-mediated contraction of rabbit pulmonary artery (agonist BANK). To be noted: endothelium removed, read-out: -log molar KB (converted). As to the method: Inhibition of NK2 Receptor-Mediated Contraction of Rabbit Pulmonary Artery:
Male New Zealand white rabbits were administered a lethal injection of Nembutal, (60 mg/kg) into a cannulated ear vein. Heparin, 0.0025 mL/kg of a 1000 U/ml solution, was injected into the ear vein prior to Nembutal in order to decrease blood coagulation. The left and right branches of the pulmonary artery were obtained from each animal. The segments, with or without endothelium, were suspended as rings in water-jacketed tissue baths maintained at 37° C. containing physiological salt solution of the following composition (mM): NaCl (119.0); KCl (4.6); CaCl2 (1.8); MgCl2 (0.5); NaH2PO4 (1.0); NaHCO3 (25.0); glucose (11.0); and gassed continuously with 95% O2-5% CO2. […] Changes in tension were measured on a Grass polygraph via Grass FT-03 force transducers.
(§1) To study NK2-mediated contraction, the vascular endothelium was removed and beta-Ala^8-NKA (“BANK”) was used as agonist. […] The response to each concentration of ASMSP was expressed as a percentage of the total relaxation induced by papaverine. […] Apparent KB values for the compound were calculated using the standard equation: KB=[antagonist]/(dose ratio−1), where dose ratio was equal to antilog [(−log molar EC50 without antagonist)−(−log molar EC50 with antagonist)]. The resulting KB values are expressed as −log molar KB.

The target of series [3] is T2, NK2 receptor, human bronchus (Homo sapiens, UniProt P21452).
T2 construct: from tissue; host or cells: human bronchus
T2 sequence (P21452 1-398): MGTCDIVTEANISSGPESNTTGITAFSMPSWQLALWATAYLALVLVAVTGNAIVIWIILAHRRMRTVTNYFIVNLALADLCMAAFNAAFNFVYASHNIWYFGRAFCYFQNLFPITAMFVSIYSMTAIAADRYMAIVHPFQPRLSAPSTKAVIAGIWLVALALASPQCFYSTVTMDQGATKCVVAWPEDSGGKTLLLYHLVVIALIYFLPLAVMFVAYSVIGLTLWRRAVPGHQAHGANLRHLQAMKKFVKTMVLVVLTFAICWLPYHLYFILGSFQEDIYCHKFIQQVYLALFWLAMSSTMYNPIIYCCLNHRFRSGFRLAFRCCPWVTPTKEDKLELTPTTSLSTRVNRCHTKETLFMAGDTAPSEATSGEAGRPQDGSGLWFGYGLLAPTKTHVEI
Nature of the series: NK2 receptor antagonism in human bronchus. To be noted: read-out: -log molar KB (converted).

For series [4], the system named is NK1 receptor. In words: NK1 receptor-mediated relaxation of rabbit pulmonary artery induced by ASMSP. On the procedure:
Male New Zealand white rabbits were administered a lethal injection of Nembutal, (60 mg/kg) into a cannulated ear vein. Heparin, 0.0025 mL/kg of a 1000 U/ml solution, was injected into the ear vein prior to Nembutal in order to decrease blood coagulation. The left and right branches of the pulmonary artery were obtained from each animal. The segments, with or without endothelium, were suspended as rings in water-jacketed tissue baths maintained at 37° C. containing physiological salt solution of the following composition (mM): NaCl (119.0); KCl (4.6); CaCl2 (1.8); MgCl2 (0.5); NaH2PO4 (1.0); NaHCO3 (25.0); glucose (11.0); and gassed continuously with 95% O2-5% CO2. Initial tension placed on each tissue was 2 gm, which was maintained throughout a 0.5 hour equilibration period. Changes in tension were measured on a Grass polygraph via Grass FT-03 force transducers.
as §1

Series [5] concerns the target T3, human NK2 receptor (Homo sapiens, UniProt P21452).
T3 construct: expressed in transfected cells; host or cells: Mouse Erythroleukemia (MEL) cells, membrane preparation (MELM)
T3 sequence (P21452 1-398): T2 sequence (P21452 1-398)
Nature of the series: Neurokinin receptor binding assay, 3H-NKA binding to MEL cell membranes. To be noted: tritiated NKA; read-out: Ki, concentration at which 50% inhibition of binding of NKA was achieved.

The target in series [6] is T4, NK1 receptors (Homo sapiens, UniProt P25103).
T4 construct: from tissue; host or cells: unnamed tissue preparation selective for NK1 receptors
Nature of the series: Inhibition of binding of a tritiated derivative of SP in a tissue preparation selective for NK1 receptors. To be noted: read-out: concentration at which 50% inhibition of binding of SP was achieved. From the text:
The specificity of inhibition by the Compound was shown by inhibiting the binding of tritiated NKA at the NK2 receptor compared to inhibition of binding of a tritiated derivative of SP in a tissue preparation selective for NK1 receptors.

The subject of series [7] is BANK-induced dyspnea. Nature of the series: BANK-induced dyspnea in conscious guinea pigs. To be noted: for ED50: Cavia porcellus. Format: in vivo, guinea pig. As to the method: Dyspnea (labored abdominal breathing) was induced in conscious guinea pigs by aerosol administration of BANK, as previously described (Kusner, et al. Euro. J. Pharmacol. 210:299-306,1992). All animals were pretreated with atropine, 10 mg/kg ip 45 minutes; indomethacin, 10 mg/kg ip 30 minutes; propranolol, 5 mg/kg ip 30 minutes; and thiorphan, 1 mg/ml aerosol for 5 minutes duration, starting 15 minutes prior to challenge in order to block muscarinic receptors, cyclooxygenase, beta-adrenergic receptors, and neutral endopeptidase (EC 3.4.24.11), respectively. Animals were pretreated with Compound or vehicle at appropriate times before challenge with aerosolized BANK for 780 seconds. BANK was administered to six animals simultaneously by being aerosolized with a DeVilbiss ultrasonic nebulizer into an air stream flowing into a Plexiglas chamber at a rate of 2 liter/min. The time required for dyspnea to occur was recorded for each animal. […] Vehicle pretreated control animals were included in each experiment. Results are reported in % protection values where: [formula]

The test system of series [8] is BANK-induced bronchoconstriction. In words: Pulmonary mechanics in anesthetized guinea pigs, BANK-induced bronchoconstriction. Format: in vivo, guinea pig.
The test system of series [9] is BANK-induced bladder contraction. In words: In vivo bladder contraction inhibition in rats (BANK-induced). Details: species or system rat.
Series [10] is described as follows: Side-effects in laboratory test animals. Format: in vivo. To be noted: several multiples of the minimum effective dose.

Structures are written as SMILES. Where “and” joins values, the source holds several entries; their conditions need not be identical. Equal entries are not always repeated.

As usually defined, the ED50 is the dose that gives a 50% effect, or the effect in half of the subjects. Lower therefore signals greater potency.

T4 sequence (P25103 whole entry): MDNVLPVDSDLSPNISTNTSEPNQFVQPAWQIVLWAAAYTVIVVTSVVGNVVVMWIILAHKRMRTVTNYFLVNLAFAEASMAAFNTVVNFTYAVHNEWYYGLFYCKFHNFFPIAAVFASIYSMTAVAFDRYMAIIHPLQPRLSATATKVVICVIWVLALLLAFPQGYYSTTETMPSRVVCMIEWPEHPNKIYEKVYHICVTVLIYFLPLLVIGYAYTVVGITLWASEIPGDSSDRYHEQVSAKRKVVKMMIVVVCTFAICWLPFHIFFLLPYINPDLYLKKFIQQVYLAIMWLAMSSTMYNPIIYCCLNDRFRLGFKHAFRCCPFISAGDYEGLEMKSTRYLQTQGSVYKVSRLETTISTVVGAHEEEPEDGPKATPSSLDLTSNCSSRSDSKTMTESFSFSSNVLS

`CCN(CC)CC#CCOC(=O)C(O)(c1ccccc1)C1CCCCC1` (stereo not drawn) [oxybutinin]: in series [1], the “adverse effects (primarily dry mouth), share of the patient population” value is on record as “approximately 78%”.
Take `CN(C[C@@H](CCN1CCC(N2CCCNC2=O)CC1)c1ccc(Cl)c(Cl)c1)C(=O)c1ccccc1` [the Compound, (S)-N-[2-(3,4-dichlorophenyl)-4-[4-(2-oxoperhydropyrimidin-1-yl)piperidino]butyl]-N-methylbenzamide]: the Kb in series [2] was 0.891 nM; in series [3], 2.4 nM. In series [4] (endothelium intact, phenylephrine-contracted), the “antagonism of relaxation induced by ASMSP” value is reported as “minor antagonism”. Besides, the “selectivity, KB against NK1 receptor-mediated response versus NK2 receptor-mediated response” value in series [4] (rabbit pulmonary artery) is 1,096 fold. Besides, the Ki in [5] is 1.25 nM. For the same compound, the IC50 in [6] worked out at 187 nM. The “protection half-life against BANK-induced dyspnea” value in series [7] (2 mg/kg dose, duration of action studies) is 2.43 h. The ED50 in [7] (intravenously 30 min prior to challenge) was 0.13 µmol/kg and 0.07 mg/kg; in [7] (oral administration 120 min before challenge), 0.75 µmol/kg and 0.39 mg/kg. Also, the “Maximum efficacy (% protection)” value in [7] (intravenous, 0.3 μmol/kg) turned out to be 95%; in [7] (oral dose of 3.0 μmol/kg), 100%. Moreover, the “rightward shift of the response curves for BANK” value in series [8] (intravenously at 30 min before BANK) is reported as about 196 fold. Moreover, the “rightward shift in the BANK-induced dose-response curve” value in series [8] (oral 120 min before BANK) was about 481 fold. Also, the maximum efficacy entry in [9] ([…] (1.8 mg/kg) against intravenous BANK (3 nmol/kg)) is “approximately 100%”; in series [9] (oral, 5 μmol/kg (2.5 mg/kg)), “about 80%”. The “activity in bladder contraction test” value in series [9] (intravenously and orally, 0.2 to 5 μmol/kg body weight) is “active and selective”. The Duration of action entry in [9] (oral 1.2 μmol/kg) is “about 6 hr”. This compound also registered a half-life of action in series [9] (oral 1.2 μmol/kg) of about 3.5 h. Also, in series [10], the untoward side-effects entry is reported as “has not been found to show any indication of any untoward side-effects”.
`Cc1ccc(O)c([C@H](CCN(C(C)C)C(C)C)c2ccccc2)c1` [tolterodine]: the “adverse effects (primarily dry mouth), share of the patient population” value in series [1] was about 39%.

The values are drawn from patent publication US20030139433A1, “Method for the treatment of overactive bladder” (priority 2000, published 2003).
